Reference: PubChem BioAssay AID248 (DTP/NCI, 2004)
“And” between values parts separate entries of the source, which are not always exact repeats. Equal values may be shown once. Inconclusive results and toxic doses are left out.

Tested on: L1210 leukemia ip in BDF1 mice, survival T/C
Assay: NCI In Vivo Anticancer Drug Screen. Data for tumor model L1210 Leukemia (intraperitoneal) in B6D2F1 (BDF1) mice
Settings: endpoint: mean survival time, higher = longer survival
Method in brief: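 Tumor cells were implanted, animals were treated, and survival was followed. The result divides the treated measurement by the vehicle-control measurement.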

[1] = dose: 100.0 mg/kg/injection, schedule: Q01DX009 (ip), vehicle: saline
[2] = dose: 100.0 mg/kg/injection, schedule: Q01DX009 (ip), vehicle: Klucel (hydroxypropylcellulose) (HPC)
[3] = dose: 50.0 mg/kg/injection, schedule: Q04DX002 (ip), vehicle: saline
[4] = dose: 200.0 mg/kg/injection, schedule: Q04DX002 (ip), vehicle: saline
[5] = dose: 100.0 mg/kg/injection, schedule: Q01DX001 (ip), vehicle: saline
[6] = dose: 25.0 mg/kg/injection, schedule: Q04DX003 (ip), vehicle: saline
[7] = dose: 50.0 mg/kg/injection, schedule: Q04DX003 (ip), vehicle: saline
[8] = dose: 100.0 mg/kg/injection, schedule: Q04DX003 (ip), vehicle: saline
[9] = dose: 25.0 mg/kg/injection, schedule: Q04DX002 (ip), vehicle: saline
[10] = dose: 100.0 mg/kg/injection, schedule: Q04DX002 (ip), vehicle: saline
[11] = dose: 25.0 mg/kg/injection, schedule: Q01DX009 (ip), vehicle: saline
[12] = dose: 50.0 mg/kg/injection, schedule: Q01DX009 (ip), vehicle: saline
[13] = dose: 25.0 mg/kg/injection, schedule: Q01DX009 (ip), vehicle: Klucel (hydroxypropylcellulose) (HPC)
[14] = dose: 50.0 mg/kg/injection, schedule: Q01DX009 (ip), vehicle: Klucel (hydroxypropylcellulose) (HPC)

CCCCCCCCC1OCC(C)O1 (stereo not drawn)
T/C (dose: 24.0 mg/kg/injection, schedule: Q01DX Z (ip), vehicle: methylcellulose (MC)): 94 % of control and 92 % of control
T/C (dose: 37.0 mg/kg/injection, schedule: Q01DX Z (ip), vehicle: methylcellulose (MC)): 96 % of control and 107 % of control
T/C (dose: 55.0 mg/kg/injection, schedule: Q01DX Z (ip), vehicle: methylcellulose (MC)): 86 % of control
T/C (dose: 82.5 mg/kg/injection, schedule: Q01DX Z (ip), vehicle: methylcellulose (MC)): 97 % of control and 92 % of control
T/C (dose: 124.0 mg/kg/injection, schedule: Q01DX Z (ip), vehicle: methylcellulose (MC)): 94 % of control

COC(OC)c1[nH]c(=S)[nH]c(=O)c1Cc1cc(C)ccc1C
T/C [1]: 99 % of control
T/C (dose: 200.0 mg/kg/injection, schedule: Q01DX009 (ip), vehicle: saline): 101 % of control
T/C (dose: 400.0 mg/kg/injection, schedule: Q01DX009 (ip), vehicle: saline): 103 % of control

N#CC1(NC(=O)CCl)CCCCC1
T/C (dose: 100.0 mg/kg/injection, schedule: Q01DX001 (ip), vehicle: other): 96 % of control
T/C (dose: 200.0 mg/kg/injection, schedule: Q01DX001 (ip), vehicle: other): 91 % of control

Cc1c(Cl)cccc1NC(=O)Oc1ccc(F)cc1Cl
T/C [2]: 94 % of control
T/C (dose: 200.0 mg/kg/injection, schedule: Q01DX009 (ip), vehicle: Klucel (hydroxypropylcellulose) (HPC)): 95 % of control

CC(=O)OC1CC(n2cc(C)c(=O)[nH]c2=O)OC1COP(=O)(N1CC1)N1CC1 (stereo not drawn)
T/C [3]: 107 % of control
T/C [4]: 112 % of control

CNC(=O)OC(C)CN(c1ccccc1)c1ccccc1 (stereo not drawn)
T/C (dose: 50.0 mg/kg/injection, schedule: Q01DX001 (ip), vehicle: saline): 98 % of control
T/C [5]: 104 % of control
T/C (dose: 200.0 mg/kg/injection, schedule: Q01DX001 (ip), vehicle: saline): 98 % of control
T/C (dose: 400.0 mg/kg/injection, schedule: Q01DX001 (ip), vehicle: saline): 102 % of control

O=C(CN1CCOCC1)Nc1ccc(-c2ccc(NC(=O)CN3CCOCC3)cc2)cc1
T/C (dose: 100.0 mg/kg/injection, schedule: Q01DX001 (ip), vehicle: carboxymethylcellulose (CMC)): 92 % of control
T/C (dose: 200.0 mg/kg/injection, schedule: Q01DX001 (ip), vehicle: carboxymethylcellulose (CMC)): 97 % of control
T/C (dose: 400.0 mg/kg/injection, schedule: Q01DX001 (ip), vehicle: carboxymethylcellulose (CMC)): 92 % of control

COC(=O)C1=C(C(=O)OC)[N+](C)(C)N=C1[O-]
T/C [6]: 110 % of control
T/C [7]: 104 % of control
T/C [8]: 95 % of control and 101 % of control

C=C1C(=O)OC2C1CCC1(C)CCCC(=C)C21O (stereo not drawn)
T/C [9]: 105 % of control
T/C [3]: 102 % of control
T/C [10]: 93 % of control and 97 % of control
T/C [4]: 90 % of control

CCCCN(C)/N=N\c1[nH]ncc1C(N)=O
T/C (dose: 8.5 mg/kg/injection, schedule: Q01DX009 (ip), vehicle: saline with Tween-80): 119 % of control
T/C (dose: 13.0 mg/kg/injection, schedule: Q01DX009 (ip), vehicle: saline with Tween-80): 104 % of control
T/C (dose: 16.25 mg/kg/injection, schedule: Q01DX009 (ip), vehicle: saline with Tween-80): 115 % of control
T/C (dose: 20.0 mg/kg/injection, schedule: Q01DX009 (ip), vehicle: saline with Tween-80): 115 % of control
T/C (dose: 30.5 mg/kg/injection, schedule: Q04DX003 (ip), vehicle: saline with Tween-80): 100 % of control
T/C (dose: 44.0 mg/kg/injection, schedule: Q01DX009 (ip), vehicle: other): 165 % of control
T/C (dose: 61.0 mg/kg/injection, schedule: Q04DX003 (ip), vehicle: saline with Tween-80): 108 % of control
T/C (dose: 65.0 mg/kg/injection, schedule: Q01DX009 (ip), vehicle: saline with Tween-80): 157 % of control
T/C (dose: 66.0 mg/kg/injection, schedule: Q01DX009 (ip), vehicle: other): 184 % of control
T/C (dose: 77.25 mg/kg/injection, schedule: Q01DX001 (ip), vehicle: saline with Tween-80): 106 % of control
T/C (dose: 122.0 mg/kg/injection, schedule: Q04DX003 (ip), vehicle: saline with Tween-80): 119 % of control
T/C (dose: 150.0 mg/kg/injection, schedule: Q01DX009 (ip), vehicle: other): 114 % of control
T/C (dose: 154.5 mg/kg/injection, schedule: Q01DX001 (ip), vehicle: saline with Tween-80): 117 % of control
T/C (dose: 309.0 mg/kg/injection, schedule: Q01DX001 (ip), vehicle: saline with Tween-80): 114 % of control

Cc1cncn1CC(=O)c1ccccc1
T/C [11]: 104 % of control and 105 % of control
T/C [9]: 101 % of control and 105 % of control
T/C [12]: 103 % of control and 104 % of control
T/C [3]: 101 % of control and 108 % of control
T/C (dose: 100.0 mg/kg/injection, schedule: Q04DX002 (ip), vehicle: Klucel (hydroxypropylcellulose) (HPC)): 93 % of control
T/C [10]: 103 % of control

C#CC(=O)CCCCCCl
T/C (dose: 6.25 mg/kg/injection, schedule: Q01DX009 (sc), vehicle: olive oil, sesame oil, peanut oil): 100 % of control
T/C (dose: 12.5 mg/kg/injection, schedule: Q01DX009 (sc), vehicle: olive oil, sesame oil, peanut oil): 94 % of control
T/C (dose: 12.5 mg/kg/injection, schedule: Q04DX002 (sc), vehicle: olive oil, sesame oil, peanut oil): 103 % of control
T/C (dose: 25.0 mg/kg/injection, schedule: Q01DX009 (sc), vehicle: olive oil, sesame oil, peanut oil): 97 % of control
T/C (dose: 25.0 mg/kg/injection, schedule: Q04DX002 (sc), vehicle: olive oil, sesame oil, peanut oil): 95 % of control

c1ccc(-c2nc3cnccc3o2)cc1
T/C (dose: 12.5 mg/kg/injection, schedule: Q01DX009 (ip), vehicle: Klucel (hydroxypropylcellulose) (HPC)): 92 % of control
T/C [13]: 94 % of control
T/C [14]: 94 % of control
T/C (dose: 100.0 mg/kg/injection, schedule: Q04DX003 (ip), vehicle: Klucel (hydroxypropylcellulose) (HPC)): 106 % of control
T/C (dose: 200.0 mg/kg/injection, schedule: Q04DX003 (ip), vehicle: Klucel (hydroxypropylcellulose) (HPC)): 99 % of control
T/C (dose: 400.0 mg/kg/injection, schedule: Q04DX003 (ip), vehicle: Klucel (hydroxypropylcellulose) (HPC)): 94 % of control

CC(C)C1(C(=O)N2CCCCC2=O)SCCCS1
T/C (dose: 100.0 mg/kg/injection, schedule: Q04DX003 (ip), vehicle: saline with Tween-80): 94 % of control
T/C (dose: 200.0 mg/kg/injection, schedule: Q04DX003 (ip), vehicle: saline with Tween-80): 90 % of control
T/C (dose: 400.0 mg/kg/injection, schedule: Q04DX003 (ip), vehicle: saline with Tween-80): 92 % of control

CN1CC(CO)=CC2c3cccc4[nH]cc(c34)CC21 (stereo not drawn)
T/C [5]: 94 % of control

COc1cc(N2CCOCC2)ccc1N
T/C [11]: 89 % of control
T/C [6]: 100 % of control
T/C [12]: 95 % of control
T/C [7]: 101 % of control
T/C [8]: 103 % of control

C/C=C/C[n+]1cccc2ccccc21
T/C (dose: 6.25 mg/kg/injection, schedule: Q01DX009 (ip), vehicle: saline): 92 % of control
T/C (dose: 6.25 mg/kg/injection, schedule: Q04DX003 (ip), vehicle: saline): 98 % of control
T/C (dose: 12.5 mg/kg/injection, schedule: Q01DX009 (ip), vehicle: saline): 95 % of control
T/C (dose: 12.5 mg/kg/injection, schedule: Q04DX003 (ip), vehicle: saline): 101 % of control
T/C [11]: 100 % of control
T/C [6]: 101 % of control

CCN(CC)CCOc1ccccc1-c1nc2ccccc2s1
T/C [13]: 104 % of control
T/C [14]: 98 % of control
T/C [2]: 96 % of control and 108 % of control

O=C1Cc2ccccc2C(=O)N1
T/C (dose: 25.0 mg/kg/injection, schedule: Q01DX Z (ip), vehicle: carboxymethylcellulose (CMC)): 91 % of control
T/C (dose: 40.0 mg/kg/injection, schedule: Q01DX Z (ip), vehicle: carboxymethylcellulose (CMC)): 104 % of control
T/C (dose: 60.0 mg/kg/injection, schedule: Q01DX Z (ip), vehicle: carboxymethylcellulose (CMC)): 112 % of control
T/C (dose: 90.0 mg/kg/injection, schedule: Q01DX Z (ip), vehicle: carboxymethylcellulose (CMC)): 100 % of control
T/C (dose: 100.0 mg/kg/injection, schedule: Q04DX003 (ip), vehicle: saline sonified): 100 % of control
T/C (dose: 200.0 mg/kg/injection, schedule: Q04DX003 (ip), vehicle: saline sonified): 99 % of control
T/C (dose: 400.0 mg/kg/injection, schedule: Q04DX003 (ip), vehicle: saline sonified): 100 % of control

C1=NCCCN1
T/C [12]: 89 % of control
T/C [1]: 94 % of control
T/C [8]: 97 % of control
T/C (dose: 200.0 mg/kg/injection, schedule: Q04DX003 (ip), vehicle: saline): 100 % of control
